Among the data in patent US20230192700A1, “PYRAZOLOPYRAZINES ACTING ON CANCERS VIA INHIBITION OF CDK12” (Bayer Aktiengesellschaft, priority 2020, published 2023) are IC50 values, retold here.

The target in one test is T1, CDK9/CyclinT1 (Homo sapiens, UniProt P50750).
T1 construct: Recombinant full-length His-tagged human CDK9 and CycT1; His-tag; purchased Life Technologies PV4131; host or cells: insect cells
In words: CDK9/CycT1 high ATP kinase assay (TR-FRET). The format is biochemical. The following applies: 2 mM ATP (high ATP); median; read-out: CDK9/CyclinT1, 2 mM ATP (high ATP) IC50 - [mol/l] (median). Put shortly: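 Full-length His-tagged human CDK9/CycT1 (insect cell) at ~0.5 µg/mL, preincubated with compound 15 min at 22 °C in Tris pH 8.0 buffer, then reacted 25 min with 2 mM ATP and 0.75 µM biotinylated peptide (final). Phospho-substrate detected by TR-FRET (anti-RB pSer807/811, Eu/XL665), 665/620 nm ratio normalised to no-inhibitor and no-enzyme controls.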
(In general: In TR-FRET formats the signal depends on donor and acceptor labels being close together.)

Another test addresses T2, CDK2/CyclinE (Homo sapiens, UniProt P24941).
T2 construct: GST; purchased ProQinase GmbH (Freiburg, Germany); host or cells: insect cells (Sf9)
In words: CDK2/CycE kinase assay (TR-FRET). The format is biochemical. To be noted: 2 mM ATP (high ATP); median; read-out: CDK2/CyclinE, 2 mM ATP (high ATP) IC50 - [mol/l] (median). In short, it runs like this: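 GST-tagged human CDK2/CycE (Sf9-expressed, ~10 ng/mL) was preincubated 15 min with compound, then run 25 min at 22 °C with 2 mM ATP and 0.75 μM biotinylated peptide, pH 8.0. Phospho-substrate was detected by TR-FRET (anti-RB pSer807/811, Eu-anti-mouse, streptavidin-XL665), 665/620 nm ratio, normalised to no-inhibitor and no-enzyme controls.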

T1 sequence (P50750 whole entry): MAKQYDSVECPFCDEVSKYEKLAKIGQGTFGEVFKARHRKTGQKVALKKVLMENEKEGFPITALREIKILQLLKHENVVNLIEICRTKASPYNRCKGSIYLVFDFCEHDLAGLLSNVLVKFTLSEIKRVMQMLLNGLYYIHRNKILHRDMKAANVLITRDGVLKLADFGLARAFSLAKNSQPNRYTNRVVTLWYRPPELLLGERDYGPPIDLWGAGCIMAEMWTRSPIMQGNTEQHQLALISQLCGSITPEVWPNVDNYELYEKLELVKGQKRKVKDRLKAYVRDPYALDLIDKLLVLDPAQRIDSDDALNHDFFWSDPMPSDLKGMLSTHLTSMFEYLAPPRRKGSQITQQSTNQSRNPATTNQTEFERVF
T1 sequence (O60563 whole entry partner): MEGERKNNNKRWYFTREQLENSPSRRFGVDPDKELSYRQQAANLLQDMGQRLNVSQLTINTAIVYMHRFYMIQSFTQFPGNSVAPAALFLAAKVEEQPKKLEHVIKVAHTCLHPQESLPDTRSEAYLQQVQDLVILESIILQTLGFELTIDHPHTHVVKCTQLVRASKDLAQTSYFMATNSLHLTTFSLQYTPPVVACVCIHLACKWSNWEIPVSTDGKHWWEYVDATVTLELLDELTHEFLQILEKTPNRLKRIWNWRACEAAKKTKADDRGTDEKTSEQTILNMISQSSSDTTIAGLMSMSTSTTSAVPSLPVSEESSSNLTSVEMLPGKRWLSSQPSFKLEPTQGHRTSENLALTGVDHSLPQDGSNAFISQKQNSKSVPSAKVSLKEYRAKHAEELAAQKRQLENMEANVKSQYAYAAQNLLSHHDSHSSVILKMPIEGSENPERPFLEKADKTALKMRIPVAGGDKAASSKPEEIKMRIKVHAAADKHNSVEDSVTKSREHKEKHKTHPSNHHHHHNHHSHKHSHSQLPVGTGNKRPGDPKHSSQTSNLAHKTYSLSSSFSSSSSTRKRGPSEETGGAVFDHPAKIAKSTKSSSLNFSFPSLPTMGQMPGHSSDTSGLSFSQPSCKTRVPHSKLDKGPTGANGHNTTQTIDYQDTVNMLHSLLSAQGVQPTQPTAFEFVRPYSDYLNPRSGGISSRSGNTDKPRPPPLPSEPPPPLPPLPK

For the compound `CC(CCN(C)C)n1nc(NCc2nc3ccccc3[nH]2)c2ncc(C3CC3)nc21` (racemic) [Example 62, (±)-N-[(1H-benzimidazol-2-yl)methyl]-6-cyclopropyl-1-[4-(dimethylamino)butan-2-yl]-1H-pyrazolo[3,4-b]pyrazin-3-amine], the IC50 at CDK9/CyclinT1 and at CDK2/CyclinE was > 20 µM in each case.

Take `CN1CCC(n2nc(NCc3nc4cc(SC(F)(F)F)ccc4[nH]3)c3ncc(C4CC4)nc32)CC1` [Example 27, 6-cyclopropyl-1-(1-methylpiperidin-4-yl)-N-({5-[(trifluoromethyl)sulfanyl]-1H-benzimidazol-2-yl}methyl)-1H-pyrazolo[3,4-b]pyrazin-3-amine]: the IC50 on CDK9/CyclinT1 and on CDK2/CyclinE was > 20 µM each time.

As to `c1ccc2[nH]c(CNc3nn(C4CCC4)c4nc(C5CC5)cnc34)nc2c1` [Example 49, N-[(1H-benzimidazol-2-yl)methyl]-1-cyclobutyl-6-cyclopropyl-1H-pyrazolo[3,4-b]pyrazin-3-amine], the IC50 at CDK9/CyclinT1 and on CDK2/CyclinE was > 20 µM throughout.
